In US20140199279A1, “METHODS FOR ENHANCING THE DELIVERY OF GENE-[…]” (Bluebird Bio, Inc., priority 2011, published 2014):
Values joined by “and” are separate entries in the source; they are usually repeats but may differ in a detail not shown here. Equal values may be shown once.

Tests used:
[1] = tested on: G-CSF mobilized peripheral blood CD34+ cells; assay: Puromycin selection of HPV654-transduced G-CSF mobilized peripheral blood CD34+ cells; PCR of CFU-GM colonies for lentiviral vector; type: cell-based, human
Experimental: (§1) Viral titers were determined by qPCR analysis of transduced NIH3T3 cells with proviral copy number controls.
(§2) Either fresh bone marrow (BM, Lonza, Walkersville, Md.) or cryopreserved G-CSF-mobilized peripheral blood (mPB, AllCells, Emeryville, Calif.) CD34^+ purified cells were used from normal human donors. At a cell concentration of 1×10^6/ml, the CD34 cells were prestimulated for 24 hours (BM) or 18 hours (mPB) in StemPro-34 SFM supplemented with L-glutamine, 100 ng/ml hSCF, 100 ng/ml hTPO, 100 ng/ml hFLT3-L and 20 ng/ml hIL-3 for BM or 60 ng/ml hIL-3 for mPB. The cells were then resuspended at a concentration of 4×10^6 (BM) or 3×10^6 (mPB) cells/ml in the same medium containing cytokines with additional supplementation with 8 μg/ml protamine sulfate and the HPV654 supernatant at either 10% (final exposed titer of 3×10^7 IU/ml with MOI of 7.5 for BM and 1×10^7 IU/ml with MOI of 3.3 for mPB) or 50% (final exposed titer of 1.5×108 IU/ml with MOI of 37.5 for BM and 5×10^7 IU/ml with MOI of 16.7 for mPB). […] Each colony was then analyzed for the presence of the lentiviral vector by PCR analysis of individual colonies using primers for erythropoietin gene for BM and human actin gene for mPB and primers specific for the lentiviral vector (GAG for BM and LTR for mPB).

bone marrow CD34+ cells = assay: Puromycin selection of HPV654-transduced bone marrow CD34+ cells; PCR of CFU-GM colonies for lentiviral vector; type: cell-based, human; settings: BM CD34+ cells, 5 μg/ml puromycin for 24 hours, 14 days growth
Experimental: as §1, §2

COc1ccc(C[C@H](N)C(=O)N[C@H]2[C@@H](O)[C@H](n3cnc4c(N(C)C)ncnc43)O[C@@H]2CO)cc1 [puromycin]
colonies positive for the lentiviral vector (transduced cells) [1]: 88% and 100%
colonies positive for the lentiviral vector (transduced cells) (bone marrow CD34+ cells; 10% HPV654 supernatant): 100%
colonies positive for the lentiviral vector (transduced cells) (bone marrow CD34+ cells; 50% HPV654 supernatant): 79%
